Results on eight compounds are retold here after patent US12612426B2, “Aryl glucoside derivative” (Shanghai Zheye Biotechnology Co. Ltd., priority 2020, dated 2026).

Data set [1] in a line: Lipid and water solubility of click-chemistry candidate compound compared with Example 4. The class given is physicochemical. An excerpt: The compound of Example 4, copper sulfate, and a cyclopropyl azide compound (refer to Chemische Berichte (1985), 118(4), 1564-1574; Science of Synthesis (2010), 41, 543-612; Nature (London, United Kingdom) (2019), 574(7776), 86-89) were stirred and reacted at room temperature, and after the reaction was completed, target compounds could be prepared by silica gel column chromatography. Rf: 0.16 (dichloromethane:methanol=10:1).

A short description of data set [2]: Oral glucose tolerance test (OGTT) after continuous administration in rats for 14 days. It counts as in vivo, SD rats. Particulars: for blood sugar level in OGTT: 0.009 mg/kg oral gavage for 14 days, OGTT on day 15; for loose stools: 0.009 mg/kg oral gavage, within 48 hours before and after the experiment. Here is the method:
• Experimental animals: SPF male SD rats; • Compound preparation: an appropriate amount of the compounds of Example 1, Example 3, and Example 4 were weighed, and uniformly suspended with an appropriate amount of 0.5% CMC-Na solution; • Preparation of glucose solution: an appropriate amount of glucose powder was weighed and dissolved with an appropriate amount of pure water; • Dosage and method of administration: 0.009 mg/kg, oral gavage.
Experimental process: the animals were fed a normal diet with consecutive administration for 14 days, and the glucose tolerance test was performed on day 15, blood glucose was detected before administration (−30 min), before giving glucose (0 min), and 10, 30, 60, and 120 min after giving glucose solution, and the defecation of animals was observed.

Data set [3] has as its target T1, SGLT1 (Homo sapiens, UniProt P13866).
T1 sequence (P13866 1-664): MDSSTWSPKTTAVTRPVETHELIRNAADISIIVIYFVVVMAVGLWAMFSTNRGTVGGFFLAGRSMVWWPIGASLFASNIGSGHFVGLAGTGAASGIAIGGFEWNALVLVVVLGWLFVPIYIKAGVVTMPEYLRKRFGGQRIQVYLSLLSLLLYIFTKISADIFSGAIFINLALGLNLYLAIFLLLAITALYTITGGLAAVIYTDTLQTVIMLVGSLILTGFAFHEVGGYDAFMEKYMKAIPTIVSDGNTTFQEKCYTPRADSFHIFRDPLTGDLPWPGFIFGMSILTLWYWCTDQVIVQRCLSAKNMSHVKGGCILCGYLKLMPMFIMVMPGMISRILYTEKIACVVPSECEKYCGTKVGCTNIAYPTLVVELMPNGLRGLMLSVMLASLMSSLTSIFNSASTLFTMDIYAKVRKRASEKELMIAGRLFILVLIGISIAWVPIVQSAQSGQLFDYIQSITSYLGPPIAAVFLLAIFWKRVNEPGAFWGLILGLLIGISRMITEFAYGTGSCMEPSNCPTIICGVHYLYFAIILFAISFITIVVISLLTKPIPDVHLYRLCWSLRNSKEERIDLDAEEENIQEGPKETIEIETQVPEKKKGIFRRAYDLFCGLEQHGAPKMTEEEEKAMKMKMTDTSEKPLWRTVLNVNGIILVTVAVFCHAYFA
Nature of the data set: hSGLT1 inhibitor activity experiment 2: 2-NBDG uptake by HEK293 cells stably expressing human SGLT1. As to conditions: read-out: SGLT1 Inhibitory Activity. Also on record: expressed in transfected cells. It counts as cell-based. The procedure:
Inhibitory activity testing was performed with reference to a similar method described in document [Acta Pharmaceutica Sinica 2017, 52 (6): 897-903; Nature Protocols (2007), 2(3), 753-762; Journal of Biochemical and Biophysical Methods (2005), 64(3), 207-215; Diabetes Technology & Therapeutics (2011), 13(7), 743-775].
In this experiment, the in vitro activity assay was evaluated using the uptake of 2-NBDG (2-Deoxy-2-[(7-nitro-2,1,3-benzoxadiazol-4-yl)amino]-D-glucose, CAS NO: 186689-07-6) by human embryonic kidney epithelial cells (HEK293, stably expressing human SGLT1), and the SGLT1 inhibitory activity of the target compound was determined by measuring its half-maximal inhibitory concentration (IC50).
HEK293 cells that can stably express human SGLT1 gene were inoculated into a 96-well clear-bottom black plate containing DMEM medium. The cells were incubated at 37° C., 5% CO2 in a cell incubator. The medium in the 96-well plate was aspirated, and the plate was treated with low-glucose serum-free DMEM medium, and washed once with non-specific uptake buffer and once with Na^+-dependent uptake buffer. Uptake buffer containing test compound was added to each well of cells, followed by uptake buffer containing 2-NBDG for glucose uptake, and the cell plate was incubated at 37° C., 5% CO2. The compounds were gradiently diluted. The uptake reaction was stopped by removing the culture medium, and after washing the cells with ice-cold uptake buffer, the washing solution was removed. The cells were lysed by adding NaOH, and the content of 2-NBDG in the cells was detected by a fluorescence microplate reader. The protein concentration of the lysate was measured by BCA method, the uptake of 2-NBDG was quantified by fluorescence intensity/protein content, and the obtained data were analyzed using GraphPad Prism to determine the median inhibitory concentration (IC50) of the compound to be tested. […]

Data set [4] addresses T1, SGLT1. Kind of data set: SGLT1 inhibitor activity experiment 1. The class given is cell-based. Here is the method: The inhibitory activity of SGLT1 was tested with reference to the method described in document (Journal of Medicinal Chemistry 2017, 60, 710-721, Discovery of LX2761, a Sodium-Dependent Glucose Cotransporter 1 (SGLT1) Inhibitor Restricted to the Intestinal Lumen, for the Treatment of Diabetes).

The nature of data set [5]: Pharmacokinetic study in rats. As to conditions: 10 mg/kg oral gavage. The class given is in vivo, SD rats. Here is the method:
5. Pharmacokinetic Study in Rats • Experimental animals: SPF male SD rats; • Dosage and method of administration: 10 mg/kg, oral gavage. • Research compound: Dapagliflozin, the compound of Example 4, the compound of Example 6, and the comparative compound 6; • Test method: Before administration (0), and 1, 4, 8, and 24 hours after administration, 0.2 ml of blood was collected from orbital venous plexus, anticoagulated with heparin, and plasma was collected.
Note: The comparative compound 6 is the compound numbered “6” in the document (Journal of Medicinal Chemistry 2017, 60, 710-721, Discovery of LX2761, a Sodium-Dependent Glucose Cotransporter 1 (SGLT1) Inhibitor Restricted to the Intestinal Lumen, for the Treatment of Diabetes). It was prepared and identified according to the synthetic method described in the document.

As to `CS[C@H]1O[C@@H](c2ccc(C)c(Cc3ccc(CCCC(=O)NC(C)(C)C(=O)NCCN(C)Cc4cn(C5CC5)nn4)cc3)c2)[C@H](O)[C@@H](O)[C@@H]1O`, in data set [1], the “lipid solubility compared with Example 4” value is reported as “better” and the “water solubility compared with Example 4” value was “better”.

Take `CS[C@H]1O[C@@H](c2ccc(C)c(Cc3ccc(CCCC(=O)NC(C)(C)C(=O)NCCN4CCCC4)cc3)c2)[C@H](O)[C@@H](O)[C@@H]1O` [Example 1]: in data set [2], the “blood sugar level in OGTT” value is “significantly reduce the blood sugar level of rats” and the loose stools result was “no loose stools were observed”. Further, the IC50 in data set [3] amounted to 0.67 nM.

Consider `CS[C@H]1O[C@@H](c2ccc(C)c(Cc3ccc(CCCC(=O)NC(C)(C)C(=O)NCCN4CCN(C)CC4)cc3)c2)[C@H](O)[C@@H](O)[C@@H]1O` [Example 2], for which the IC50 in data set [3] stood at 1.27 nM.

Take `CS[C@H]1O[C@@H](c2ccc(C)c(Cc3ccc(CCCC(=O)NC(C)(C)C(=O)NCCN(C)Cc4ccccc4)cc3)c2)[C@H](O)[C@@H](O)[C@@H]1O` [Example 3]: in data set [2], the “blood sugar level in OGTT” value is listed as “significantly reduce the blood sugar level of rats” and the loose stools result was “no loose stools were observed”. Besides, in data set [3], the IC50 amounted to 0.83 nM.

Take `C#CCN(C)CCNC(=O)C(C)(C)NC(=O)CCOc1ccc(Cc2cc([C@@H]3O[C@H](SC)[C@@H](O)[C@H](O)[C@H]3O)ccc2C)cc1` [Example 5]: in data set [4], the IC50 was < 50 nM.

Take `C#CCN(C)CCNC(=O)C(C)(C)NC(=O)CCOCc1ccc(Cc2cc([C@@H]3O[C@H](SC)[C@@H](O)[C@H](O)[C@H]3O)ccc2C)cc1` [Example 6]: the IC50 in data set [4] is < 50 nM. Further, the “drug concentration in plasma” value in data set [5] is recorded as “did not reach the detection limit”.

For the compound `C#CCN(C)CCNC(=O)C(C)(C)NC(=O)C/C=C/c1ccc(Cc2cc([C@@H]3O[C@H](SC)[C@@H](O)[C@H](O)[C@H]3O)ccc2C)cc1` [Example 7], the IC50 in data set [4] is < 50 nM.

With `C#CCN(C)CCNC(=O)C(C)(C)NC(=O)CCOc1ccc(Cc2cc([C@@H]3O[C@H](SC)[C@@H](O)[C@H](O)[C@H]3O)ccc2C#C)cc1` [Example 8], the IC50 in data set [4] was < 50 nM.
